The results in this text go back to the supplement of paper PMC10307832.

Holding throughout (test): relative viability (nuclei count vs DMSO), 5 days (fraction); higher = more cells survive
Compound in test [1]: O=C(CCCCCCNC(=O)c1cnc(N(c2ccccc2)c2ccccc2)nc1)NO [Ricolinostat] + Nc1ncn([C@H]2C[C@H](O)[C@@H](CO)O2)c(=O)n1 [Decitabine] (partner 2 µM)
In a few lines:
(§1)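 Relative viability is defined as nuclei in treated wells over nuclei in vehicle wells. Duplicate plates were run and medians reported. Lung cancer cell lines in 1536-well plates were dosed by pin tool one day after seeding, with one drug or with a fixed anchor-drug dose plus five library-drug doses (not always all listed) in √10 steps, and nuclei were counted after 5 days.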

Compound in test [2]: C1=CC=C(C(=C1)C2=CC=C(C=C2)C3=CSC4=C3C(=C(C(=O)N4)C#N)O)O + CS(=O)(=O)N1CCN(Cc2cc3nc(-c4cccc5[nH]ncc45)nc(N4CCOCC4)c3s2)CC1 [Pictilisib] (partner 1 µM)
In a few lines: as §1

Compound in test [3]: CC1=CN2C(=O)C=C(N=C2C(=C1)C(C)NC3=CC=CC=C3)N4CCOCC4 [TGX 221]
In a few lines:
(§2)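 A plate was accepted only when its control CV was below 25% and the cells had doubled at least once. Viability is defined from nuclear counts as treated wells divided by vehicle wells, with the median taken across plates. That median covers lung cancer cell lines grown in 1536-well plates, dosed by pinning at five √10-spaced library-drug concentrations, and counted in MetaXpress from 4× Hoechst images after 5 days.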

Compound in test [4]: O=C(CCCCCCNC(=O)c1cnc(N(c2ccccc2)c2ccccc2)nc1)NO [Ricolinostat]
In a few lines: as §2

Compound in test [5]: C1=CC=C(C(=C1)C2=CC=C(C=C2)C3=CSC4=C3C(=C(C(=O)N4)C#N)O)O
In outline: as §2

Turning to NCI-H1792, the relative viability is 0.484 in test [1] (first compound 0.253 µM); 0.492 in test [1] (first compound 0.8 µM); 0.366 in test [1] (first compound 2.53 µM); 0.275 in test [2] (first compound 0.253 µM); 0.266 in test [2] (first compound 0.8 µM); 0.19 in test [2] (first compound 2.53 µM). Further, the relative viability was found to be 0.18 in test [2] (first compound 8 µM); 0.749 in test [3] (0.08 µM); 0.878 in test [3] (0.253 µM); 1 in test [3] (0.8 µM); 0.883 in test [3] (2.53 µM); 0.864 in test [3] (8 µM). In addition, the relative viability in test [4] (0.08 µM) was found to be 0.599; in test [4] (0.253 µM), 0.938; in test [4] (0.8 µM) it was 0.754; in test [4] (2.53 µM), 0.57; in test [5] (0.253 µM) it was 1.01; in test [5] (0.8 µM), 0.723. In addition, the relative viability in test [5] (2.53 µM) was found to be 0.921; in test [5] (8 µM), 0.446.
